Results published in patent US20110104177A1, “HISTONE DEACETYLASE INHIBITORS, COMBINATION THERAPIES AND METHODS OF USE” (THE JOHNS HOPKINS UNIVERSITY, priority 2006, published 2011).
Values belong to the molecule of their own block, whether it stands above or below them.

Experiments:
[1] = test system: SFRP1, SFRP2, MLH1, CRBP1, E-cadherin genes in RKO cells; test: RT-PCR re-expression of silenced tumor suppressor genes in RKO cells; format: cell-based, human
Experimental: To inhibit any residual SIRT1 protein, remaining RNAi-expressing cells were treated with 700 μM SPT and control samples were treated with DMSO for 24 hours. […] RKO cells were also treated with 0.5 μM Aza (24 hours), and samples were analyzed as described in FIG. 1A; RT-PCR was performed with intron-spanning primers specific for the two genes. GAPDH was also analyzed as a control. […] Control samples in which no reverse transcriptase was added were analyzed separately, and all were negative for amplification of the indicated genes. […] The level of TSG re-expression induced by Aza treatment or SIRT1 inhibition as described in FIG. 4(A) was compared to levels of expression in HCT116 cells in which the TSGs are basally expressed.
(§1) Cell culture and retroviral infection. MDA-MB-231, MCF7, HCT116, SW480 RKO, and Phoenix cells (ATCC, Rockville, Md., United States) were cultured in Dulbecco's modified Eagle's medium supplemented with 10% fetal bovine serum and 1% penicillin/streptomycin (Invitrogen, Carlsbad, Calif., United States). Retroviral infection was performed using either single or multiple rounds of infection. Briefly, Phoenix cells were transfected with either pBabe, pBabe-SIRT1H363Y, pSUPERretro, pSUPERretro-SIRT1-RNAi-1-3 (NM_012238 positions 410, 589, and 1091; Oligo Engine, Seattle, Wash., United States) using Lipofectamine 2000 (Invitrogen). After 48 h of transfection, the medium containing retrovirus was collected, filtered, and supplemented with Polybrene prior to infection of target cells (MDA-MB-231, MCF7, or HCT116). Infected cells were either harvested 24-48 hours later or subjected to selection with 2-3 μg/ml puromycin for a week prior to harvest and analysis.
(§2) RNA and protein preparation and analysis. Total RNA was extracted (Invitrogen) according to the manufacturer's instructions and subjected to reverse transcription followed by both quantitative real-time and semi-quantitative polymerase chain reaction. For quantitative real-time analyses, the QuantiTect SYBR Green PCR kit (Qiagen, Valencia, Calif., United States) was used and the amplification conditions consisted of an initial 10-minutes denaturation step at 95° C., followed by 40 cycles of denaturation at 95° C. for 15 s and annealing and extension for 30 seconds and 60 seconds, respectively. A BioRad iCycler was used (BioRad, Hercules, Calif., United States), and for quantitation the comparative cycle threshold (Ct) method was used, normalizing the Ct values for the indicated gene to the Ct values of GAPDH relative to a control sample. For conventional PCR, at least two independent sets of intron-spanning primers were used for the analysis of multiple genes, such as CRBP1, (NM_002899), E-cadherin, (L34545), SFRP1, (BC036503), SFRP2, (BC008666), and Gata-4 (L34357). For Western blots, cells stably expressing RNAi constructs were harvested in 50 mM Tris-HCl, 1% NP-40, 0.25% sodium deoxycholate, 150 mM NaCl, 50 mM sodium fluoride, 1 mM dithiothreitol, 1 mM AEBSF, 1× Complete protease inhibitor cocktail (Roche, Basel, Switzerland). Protein concentrations were measured by BCA (Pierce Biotechnology, Rockford, Ill., United States). […] On the same blot, β-actin (Sigma, St. Louis, Mo., United States) was probed to ensure equal loading.
(§3) The results from experiments performed in RKO cells are shown in FIG. 7 which presents RT-PCR results for SFRP1. […] The expression seemed stronger than for 300 μM splitomycin (Spt) or 20 mM nicotinamide (Nia) when these latter two drugs were used alone or in combination, but not as strong as the expression induced by 1 μM of the DNA demethylating agent, deoxy-aza-cytidine (Aza). […] Experiments were carried out as essentially described above.

SIRT1 [2] = target: T1, SIRT1 (Homo sapiens, UniProt Q96EB6); test: Activity against the SIRT1 enzyme / SIRT1 deacetylase activity; format: biochemical
T1 sequence (Q96EB6 1-747): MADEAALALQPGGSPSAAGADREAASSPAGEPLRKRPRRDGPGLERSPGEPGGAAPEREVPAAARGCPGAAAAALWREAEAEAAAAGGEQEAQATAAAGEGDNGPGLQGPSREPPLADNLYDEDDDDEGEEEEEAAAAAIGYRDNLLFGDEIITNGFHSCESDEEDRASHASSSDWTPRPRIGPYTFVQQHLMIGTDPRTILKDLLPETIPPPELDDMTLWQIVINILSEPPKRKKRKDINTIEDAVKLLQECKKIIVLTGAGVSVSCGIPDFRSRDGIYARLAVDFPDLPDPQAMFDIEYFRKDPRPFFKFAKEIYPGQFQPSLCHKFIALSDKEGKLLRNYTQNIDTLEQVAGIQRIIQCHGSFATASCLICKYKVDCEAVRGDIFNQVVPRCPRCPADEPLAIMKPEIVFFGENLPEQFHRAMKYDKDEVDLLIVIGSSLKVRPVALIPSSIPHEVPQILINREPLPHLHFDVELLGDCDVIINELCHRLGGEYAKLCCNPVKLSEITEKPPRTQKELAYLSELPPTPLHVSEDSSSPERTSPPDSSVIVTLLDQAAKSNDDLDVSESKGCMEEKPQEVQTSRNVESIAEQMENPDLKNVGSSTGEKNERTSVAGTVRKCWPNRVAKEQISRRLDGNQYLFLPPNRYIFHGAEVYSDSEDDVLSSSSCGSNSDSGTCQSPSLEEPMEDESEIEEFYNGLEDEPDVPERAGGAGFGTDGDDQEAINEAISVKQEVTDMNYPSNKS

[3] = test system: SFRP1 and 2 genes in human breast cancer cells (line H231); test: Re-activation of SFRP1 and 2 genes in breast cancer cells (line H231); format: cell-based
Experimental: This has been accomplished for the SFRP1 and 2 genes in human breast cancer cells (line H231) and for SFRP1 in human colon cancer cells (line RKO).
as §3

[4] = test system: SFRP1 and SFRP2 genes in MCF7 cells; test: RT-PCR re-expression of silenced tumor suppressor genes in MCF7 cells; format: cell-based, human; conditions: retroviral infection, RT-PCR
Experimental: as §1, §2

[5] = test system: E-cadherin and MLH1 protein in MDA-MB-231 and RKO cells; test: Western blot of tumor suppressor protein re-expression; format: cell-based, human; conditions: puromycin selection 3 days
Experimental: The panels in FIG. 1 are as follows. […] Retroviral expression vectors encoding SIRT1 cDNA that produce short hairpin loop RNA targeting either distinct regions of SIRT1 mRNA (RNAi-1, -2, or -3) or a control (ctrl) were used to infect MCF7. Western blot analysis for SIRT1 and β-actin was performed 48 hours after two rounds of infection. […] RNA was isolated from parallel samples analyzed in FIG. 1(A), and RT-PCR was performed with intron-spanning primers specific for the genes SFRP1 and SFRP2. GAPDH was also analyzed as a control. […] Control samples in which no reverse transcriptase was added were analyzed separately, and all were negative for amplification of the indicated genes. […]
RNA and protein preparation and analysis. Total RNA was extracted (Invitrogen) according to the manufacturer's instructions and subjected to reverse transcription followed by both quantitative real-time and semi-quantitative polymerase chain reaction. For quantitative real-time analyses, the QuantiTect SYBR Green PCR kit (Qiagen, Valencia, Calif., United States) was used and the amplification conditions consisted of an initial 10-minutes denaturation step at 95° C., followed by 40 cycles of denaturation at 95° C. for 15 s and annealing and extension for 30 seconds and 60 seconds, respectively. […] Protein concentrations were measured by BCA (Pierce Biotechnology, Rockford, Ill., United States). […]

[6] = test system: SFRP1, SFRP2, E-cadherin, CRBP1 genes in MDA-MB-231 cells; test: RT-PCR re-expression of silenced tumor suppressor genes in MDA-MB-231 cells; format: cell-based, human; conditions: MDA-MB-231 cells; shRNA retroviral infection; RT-PCR
Experimental: The panels of FIG. 2 are as follows. […] MDA-MB-231 cells were treated with 15 mM NIA or 300 μM SPT for 21 hours, RNA was isolated, and RT-PCR was performed with intron-spanning primers specific for the indicated genes. Control samples in which no reverse transcriptase was added were analyzed separately, and all were negative for amplification of the indicated genes. […] MDA-MB-231 cells were treated with either 50 nM Aza (+), 100 μM SPT (+) or with both Aza and SPT (++), and 34 hours later, RT-PCR was performed for the indicated genes as described in FIG. 2(A). […] MDA-MB-231 cells were treated with either 0, 50, 100, or 120 μM SPT alone for 34 hours, or the treatment was followed by treatment with 300 nM TSA for 3 hours prior to RNA isolation and RT-PCR analysis. […] MDA-MB-231 cells were infected with low titers of virus for shRNA specific for SIRT1. Aza (100 nM) was added 24 hours prior to RNA isolation, and RT-PCR analysis was performed for the genes SFRP 1, SFRP2, and GAPDH as described in FIG. 2(A). […] As shown in the left panel, MDA-MB-231 cells were infected with a control (vec) or mutant SIRT1 virus (HY), and RT-PCR was performed as described in FIG. 2(A). MDA-MB-231 cells were infected with low titers of pBabe or pBabe-SIRT1H363Y retrovirus and subsequently treated with 100 nM Aza for 24 hours or with 300 nM TSA for 3 hours prior to harvest, and RT-PCR was performed.
as §1, §2

SIRT1 [7] = test: Western blot of SIRT1 protein after retroviral shRNA infection; format: cell-based, human
Experimental: as §1, §2

[8] = test system: SFRP1, SFRP2, GATA4 promoter methylation in MDA-MB-231 cells; test: Promoter DNA methylation by bisulfite sequencing and MSP; format: cell-based, human; conditions: MDA-MB-231 cells stably infected
Excerpt: The panels of FIG. 3 are as follows. […] Parallel samples analyzed in FIG. 1D were subjected to bisulfite sequencing of the SFRP1 promoter from MDA-MB-231 cells stably infected with control vector or RNAi-2 or RNAi-3 retrovirus. Open circles indicate unmethylated cytosines, and closed circles indicate methylated cytosines. Numbers at the bottom show the position of cytosines relative to the transcription start site, which is at position 0, and those with a minus sign (−) are upstream from this start site. The region sequenced encompasses the CpG island in which methylation status correlates with gene expression status. […] From left to right: (−) PCR Ctrl indicates H2O only; (−) BS ctrl indicates bisulfite-treated H20; (+) M ctrl indicates the cell line in which SFRP1 is partially methylated and SFRP2 and GATA4 are fully methylated; and (+) U ctrl indicates the Tera-2 cell line in which each gene is unmethylated. All remaining lanes are for MDA-MB-231. From left to right: Aza indicates 1 μM Aza (24 hours) treatment; Ctrl indicates empty vector infection; RNAi-2 indicates shRNA-2 infection alone; RNAi-3 indicates shRNA-3 infection alone; Aza indicates 1 μM Aza (24 hours treatment of control cells; Ctrl indicates empty vector infection+vehicle; RNAi-2 indicates shRNA-2 infection+5 mM NIA treatment; and RNAi-3 indicates shRNA-3 infection+5 mM NIA treatment.
MSP and bisulfite sequencing. […]

inhibition of SIRT1 deactylase activity (SIRT1 [2]): potent inhibition
Molecule: NC(=O)C1CCCCc2c1[nH]c1ccc(Cl)cc21 (centres unmarked) [Compound 6, 2-Chloro-5,6,7,8,9,10-hexahydro-cyclohepta[b]indole-6-carboxylic acid amide]
SFRP1 expression compared with 1 μM deoxy-aza-cytidine (Aza) ([1]; RKO cells, RT-PCR): not as strong
SFRP1 expression compared with 300 μM splitomycin or 20 mM nicotinamide, alone or in combination ([1]; RKO cells, RT-PCR): stronger
SFRP1 RT-PCR specific band ([1]; RKO cells, doses of 20 and 50 μM, 24 or 48 hours): produce the band at both time points
transcriptional re-activation of SFRP1 and 2 genes [3]: the same effects have been achieved

Molecule: RNAi-3: shRNA targeting SIRT1 mRNA, sequence CATAGACACGCTGGAACAG, NM_012238 position 1091
gene re-expression of CRB1 and E-cadherin ([1]; RKO cells stably expressing shRNA, treated with 700 μM SPT 24 hours, RT-PCR): leads to gene re-expression
gene re-expression of SFRP1, SFRP2 and MLH1 ([1]; RKO cells, shRNA retroviral infection, RT-PCR): leads to gene re-expression of SFRP1, SFRP2, and MLH1
gene re-expression of SFRP1 and SFRP2 [4]: led to gene re-expression
protein re-expression (E-cadherin, MLH1) by Western blot [5]: protein re-expression that corresponded with the gene reactivation
gene re-expression of SFRP1, SFRP2 and E-cadherin [6]: led to gene re-expression
reduction of SIRT1 protein (knockdown) (SIRT1 [7]; MCF7 cells, Western blot 48 h after two rounds of infection): greatest knockdown
reduction of SIRT1 protein (knockdown) (SIRT1 [7]; MDA-MB-231 cells): very effective in reducing protein levels
reduction of SIRT1 protein (knockdown) (SIRT1 [7]; RKO cells): SIRT1 protein reduction
SFRP1 promoter methylation profile (bisulfite sequencing) [8]: without changes in the methylation profile
